Experimental data as given in patent US20240041042A1, “1-(PYRIDYL)-5-AZINYLPYRAZOLE DERIVATIVES, AND THEIR USE FOR CONTROL OF UNDESIRED PLANT GROWTH” (Bayer Aktiengesellschaft, priority 2020, published 2024).

Columns and labels:
Assay type in all cases: in vivo
[1] = test system: Abutilon theophrasti (ABUTH); assay: Pre-emergence herbicidal action against ABUTH; conditions: 100% = plants have died
In short: (§1)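 Seeds sown in pots and covered with soil; WP or EC formulations sprayed onto the soil surface at 600 l/ha water with 0.5% additive, at 320 g/ha or lower. Greenhouse growth for about 3 weeks, then visual scoring as % effect against untreated controls (100% = plants dead).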

[2] = test system: Alopecurus myosuroides (ALOMY); assay: Pre-emergence herbicidal action against ALOMY; conditions: scored visually after about 3 weeks, 100% = plants have died
In short: as §1

[3] = test system: Amaranthus retroflexus (AMARE); assay: Pre-emergence herbicidal action against AMARE; conditions: visual scoring after about 3 weeks vs untreated controls
In short: as §1

Avena fatua (AVEFA) [4] = assay: Pre-emergence herbicidal action against AVEFA; conditions: 320 g/ha, visual scoring after about 3 weeks vs untreated controls
In short: as §1

[5] = test system: Digitaria sanguinalis (DIGSA); assay: Pre-emergence herbicidal action against DIGSA
In short: as §1

[6] = test system: Echinochloa crus-galli (ECHCG); assay: Pre-emergence herbicidal action against ECHCG
In short: as §1

Lolium rigidum (LOLRI) [7] = assay: Pre-emergence herbicidal action against LOLRI
In short: as §1

[8] = test system: Matricaria inodora (MATIN); assay: Pre-emergence herbicidal action against MATIN
In short: as §1

[9] = test system: Pharbitis purpurea (PHBPU); assay: Pre-emergence herbicidal action against PHBPU
In short: as §1

[10] = test system: Polygonum convolvulus (POLCO); assay: Pre-emergence herbicidal action against POLCO
In short: as §1

Setaria viridis (SETVI) [11] = assay: Pre-emergence herbicidal action against SETVI
In short: as §1

[12] = test system: Verconica persica (VERPE); assay: Pre-emergence herbicidal action against VERPE
In short: as §1

Viola tricolor (VIOTR) [13] = assay: Pre-emergence herbicidal action against VIOTR
In short: as §1

[14] = test system: Abutilon theophrasti (ABUTH); assay: Post-emergence herbicidal action against ABUTH; conditions: visual rating about 3 weeks after treatment vs untreated controls (100% = plants have died, 0% = like control plants)
In short: (§2)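 Values are percent visual activity (0% like control, 100% plants dead) after about 3 weeks in the greenhouse. Treatment: post-emergence spray at one-leaf stage, 600 l/ha spray volume, 0.5% additive, doses 320 g/ha or lower.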

[15] = test system: Digitaria sanguinalis (DIGSA); assay: Post-emergence herbicidal action against DIGSA; conditions: 320 g/ha, visual rating about 3 weeks after treatment
In short: as §2

[16] = test system: Echinochloa crus-galli (ECHCG); assay: Post-emergence herbicidal action against ECHCG
In short: as §2

Lolium rigidum (LOLRI) [17] = assay: Post-emergence herbicidal action against LOLRI; conditions: dosage 320 g/ha
In short: as §2

[18] = test system: Matricaria inodora (MATIN); assay: Post-emergence herbicidal action against MATIN; conditions: dosage 320 g/ha
In short: as §2

[19] = test system: Pharbitis purpurea (PHBPU); assay: Post-emergence herbicidal action against PHBPU
In short: as §2

Setaria viridis (SETVI) [20] = assay: Post-emergence herbicidal action against SETVI
In short: as §2

Viola tricolor (VIOTR) [21] = assay: Post-emergence herbicidal action against VIOTR
In short: as §2

Oryza sativa (ORYSA) = conditions: crop plant compatibility, 80 g/ha, effect in comparison to untreated controls
In short: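 Foliar application at the one-leaf stage: WP/EC formulation, 0.5% additive, 600 l/ha water. Greenhouse-grown in sandy loam. Endpoint is visual % injury relative to untreated controls at about 3 weeks.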

[22] = test system: Alopecurus myosuroides (ALOMY); assay: Post-emergence herbicidal action against ALOMY; conditions: visual rating about 3 weeks after treatment vs untreated controls (100% = plants have died, 0% = like control plants)
In short: as §2

[23] = test system: Amaranthus retroflexus (AMARE); assay: Post-emergence herbicidal action against AMARE
In short: as §2

Avena fatua (AVEFA) [24] = assay: Post-emergence herbicidal action against AVEFA; conditions: visual rating about 3 weeks after treatment
In short: as §2

[25] = test system: Polygonum convolvulus (POLCO); assay: Post-emergence herbicidal action against POLCO
In short: as §2

[26] = test system: Verconica persica (VERPE); assay: Post-emergence herbicidal action against VERPE
In short: as §2

[27] = Dosage column 320 g/ha (title prints 3200 g/ha), scored visually after about 3 weeks
[28] = 80 g/ha, visual scoring after about 3 weeks vs untreated controls

C[C@@H](Oc1nn(-c2nc(F)ccc2F)c(-c2cncc(F)c2)c1Cl)C(=O)O [Example I-159]
Pre-emergence action against ABUTH ([1]; 80 g/ha, scored visually after about 3 weeks vs untreated controls, 0% = like control plants): 80% | Pre-emergence action against ABUTH [1, 27]: 80% | Pre-emergence action against ALOMY ([2]; 80 g/ha): 80% | Pre-emergence action against ALOMY ([2]; 320 g/ha): 90% | Pre-emergence action against AMARE in % ([3]; 80 g/ha): 90% | Pre-emergence action against AMARE in % ([3]; 320 g/ha): 100% | Pre-emergence action against AVEFA in % (Avena fatua (AVEFA) [4]): 90% | Pre-emergence action against DIGSA in % [5, 28]: 90% | Pre-emergence action against DIGSA in % ([5]; dosage 320 g/ha): 100% | Pre-emergence action against ECHCG in % ([6]; dosage 80 g/ha): 90% | Pre-emergence action against ECHCG in % ([6]; dosage 320 g/ha): 90% | Pre-emergence action against LOLRI in % (Lolium rigidum (LOLRI) [7]; dosage 80 g/ha): 90% | Pre-emergence action against LOLRI in % (Lolium rigidum (LOLRI) [7]; dosage 320 g/ha): 100% | Pre-emergence action against MATIN in % ([8]; dosage 80 g/ha): 90% | Pre-emergence action against MATIN in % ([8]; dosage 320 g/ha): 90% | Pre-emergence action against PHBPU in % ([9]; dosage 80 g/ha): 80% | Pre-emergence action against PHBPU in % ([9]; dosage 320 g/ha): 90% | Pre-emergence action against POLCO in % ([10]; dosage 80 g/ha): 90% | Pre-emergence action against POLCO in % ([10]; dosage 320 g/ha): 90% | Pre-emergence action against SETVI in % (Setaria viridis (SETVI) [11]; dosage 80 g/ha): 90% | Pre-emergence action against SETVI in % (Setaria viridis (SETVI) [11]; dosage 320 g/ha): 100% | Pre-emergence action against VERPE in % ([12]; dosage 320 g/ha): 100% | Pre-emergence action against VIOTR in % (Viola tricolor (VIOTR) [13]; 320 g/ha, Viola tricolor): 100% | Pre-emergence action against VIOTR in % (Viola tricolor (VIOTR) [13]; dosage 80 g/ha): 100% | Post-emergence action against ABUTH in % ([14]; 320 g/ha): 80% | Post-emergence action against DIGSA in % [15]: 80% | Post-emergence action against ECHCG in % ([16]; dosage 80 g/ha): 80% | Post-emergence action against ECHCG in % ([16]; dosage 320 g/ha): 90% | Post-emergence action against LOLRI in % (Lolium rigidum (LOLRI) [17]): 80% | Post-emergence action against MATIN in % [18]: 80% | Post-emergence action against PHBPU in % ([19]; dosage 80 g/ha): 80% | Post-emergence action against PHBPU in % ([19]; dosage 320 g/ha): 80% | Post-emergence action against SETVI in % (Setaria viridis (SETVI) [20]; dosage 320 g/ha): 80% | Post-emergence action against VIOTR in % (Viola tricolor (VIOTR) [21]; 320 g/ha): 80% | Post-emergence action against ORYSA in % (Oryza sativa (ORYSA)): 10%

COC(=O)[C@@H](C)Oc1nn(-c2ncccc2F)c(-c2ccc(F)nc2)c1Br [Example I-05, Methyl (2R)-2-{[4-bromo-1-(3-fluoropyridin-2-yl)-5-(6-fluoropyridin-3-yl)-1H-pyrazol-3-yl]oxy}propanoate]
Pre-emergence action against ABUTH [1, 27]: 80% | Pre-emergence action against ALOMY ([2]; 80 g/ha): 90% | Pre-emergence action against ALOMY ([2]; 320 g/ha): 100% | Pre-emergence action against AMARE in % ([3]; 80 g/ha): 90% | Pre-emergence action against AMARE in % ([3]; 320 g/ha): 100% | Pre-emergence action against AVEFA in % (Avena fatua (AVEFA) [4]): 90% | Pre-emergence action against DIGSA in % [5, 28]: 100% | Pre-emergence action against DIGSA in % ([5]; dosage 320 g/ha): 100% | Pre-emergence action against ECHCG in % ([6]; dosage 320 g/ha): 100% | Pre-emergence action against LOLRI in % (Lolium rigidum (LOLRI) [7]; dosage 80 g/ha): 80% | Pre-emergence action against LOLRI in % (Lolium rigidum (LOLRI) [7]; dosage 320 g/ha): 100% | Pre-emergence action against MATIN in % ([8]; dosage 320 g/ha): 90% | Pre-emergence action against POLCO in % ([10]; dosage 80 g/ha): 90% | Pre-emergence action against POLCO in % ([10]; dosage 320 g/ha): 90% | Pre-emergence action against SETVI in % (Setaria viridis (SETVI) [11]; dosage 80 g/ha): 100% | Pre-emergence action against SETVI in % (Setaria viridis (SETVI) [11]; dosage 320 g/ha): 100% | Pre-emergence action against VERPE in % ([12]; dosage 80 g/ha): 100% | Pre-emergence action against VERPE in % ([12]; dosage 320 g/ha): 100% | Pre-emergence action against VIOTR in % (Viola tricolor (VIOTR) [13]; 320 g/ha, Viola tricolor): 100% | Pre-emergence action against VIOTR in % (Viola tricolor (VIOTR) [13]; dosage 80 g/ha): 90% | Post-emergence action against ABUTH in % ([14]; 80 g/ha): 80% | Post-emergence action against ABUTH in % ([14]; 320 g/ha): 80% | Post-emergence action against ALOMY in % ([22]; 80 g/ha): 90% | Post-emergence action against ALOMY in % ([22]; 320 g/ha): 100% | Post-emergence action against AMARE in % ([23]; 80 g/ha, visual rating about 3 weeks after treatment vs untreated controls (100% = plants have died, 0% = like control plants)): 90% | Post-emergence action against AMARE in % ([23]; 320 g/ha, visual rating about 3 weeks after treatment): 90% | Post-emergence action against AVEFA in % (Avena fatua (AVEFA) [24]; 80 g/ha): 90% | Post-emergence action against AVEFA in % (Avena fatua (AVEFA) [24]; 320 g/ha): 90% | Post-emergence action against DIGSA in % [15]: 90% | Post-emergence action against ECHCG in % ([16]; dosage 320 g/ha): 90% | Post-emergence action against LOLRI in % (Lolium rigidum (LOLRI) [17]): 90% | Post-emergence action against MATIN in % [18]: 100% | Post-emergence action against PHBPU in % ([19]; dosage 320 g/ha): 90% | Post-emergence action against POLCO in % ([25]; dosage 80 g/ha): 90% | Post-emergence action against POLCO in % ([25]; dosage 320 g/ha): 90% | Post-emergence action against SETVI in % (Setaria viridis (SETVI) [20]; dosage 80 g/ha): 80% | Post-emergence action against SETVI in % (Setaria viridis (SETVI) [20]; dosage 320 g/ha): 90% | Post-emergence action against VERPE in % ([26]; 320 g/ha, VERPE): 90% | Post-emergence action against VERPE in % ([26]; dosage 80 g/ha): 90% | Post-emergence action against VIOTR in % (Viola tricolor (VIOTR) [21]; 80 g/ha): 100% | Post-emergence action against VIOTR in % (Viola tricolor (VIOTR) [21]; 320 g/ha): 100%
